Data set [1] has as its system Human red blood corpuscles. As to the kind of experiment: Cytotoxicity: hemolysis capacity. As to conditions: up to 12.5 μM. Type of data set: cell-based. Here is the method: Human red blood corpuscles were diluted with PBS (pH 7.0) to the concentration of 8%, and loaded into each wells of 96-well plate. Synthetic peptide of the present invention was half-fold diluted consecutively from 12.5 μM/well, followed by reacting with the red blood corpuscles for 1 hour at 37° C. After centrifugation, OD414 was measured to determine the amount of hemoglobin in the supernatant. At this time, CA-MA peptide was used as a comparative group and melittin was used as a positive control. In order to investigate the level of hemolysis, 1% triton X-100 was added, and then OD was measured. Hemolysis capacity of triton X-100 was regarded as 100%, with which hemolysis capacity of the synthetic peptide was compared and calculated according to the below <Mathematical Formula 1>.
% hemolysis=(OD A−OD B/OD C−OD B)×100

In data set [2] the test system is Bacillus subtilis. Kind of data set: Anti-bacterial activity observation with SEM. Format: cell-based. To be noted: 0.78 μM, 30 minutes at 37° C.; FIG. 3. Here is the method: (§1) Bacillus subtilis (Gram-positive) and Pseudomonas aeruginosa (Gram-negative) cells were cultured in LB medium (1% bacto trypton, 0.5% bacto yeast extract, 1% sodium chloride) to mid-log phase, and the cells were diluted with 10 mM of Na-phosphate buffer containing 100 mM of NaCl) at the concentration of 10^8 cells/ml. Synthetic peptide of the present invention and CA-MA peptide (as a comparative group) were added into the diluted cell culture medium (final conc. 0.78 μM in B. subtilis culture, 1.56 μM in P. aeruginosa culture), followed by further culturing for 30 minutes at 37° C. 0.2 M Na-phosphate buffer containing 5% glutaraldehyde was added into the medium, and the cells were fixed for 2 hours at 4° C. The cells were filtered with isopore filters (0.2 μm pore size, Millipore, Bedford, Mass., USA), and washed with 0.1 M Na-cacodylate buffer (pH 7.4). The filters were treated with 1% osmium tertoxide and dehydrated.

Data set [3] relates to Pseudomonas aeruginosa. As to the kind of experiment: Anti-bacterial activity observation with SEM. Format: cell-based. As to conditions: 1.56 μM, 30 minutes at 37° C.; FIG. 4. Here is the method:
as §1

For data set [4], the system named is Pseudomonas aeruginosa. As to the kind of experiment: Visualization of anti-bacterial activity, colonies on plate. Type of data set: cell-based. To be noted: 4×10^5 P. aeruginosa cells, 4 μM peptide, 2 hours at 37° C.; FIG. 2. Here is the method: (§2) In order to visualize the antibiotic activity of the synthetic peptide of the present invention on the plate, Pseudomonas aeruginosa and Bacillus subtilis were inoculated in LB medium (1% bacto trypton, 0.5% yeast extract, 1% sodium chloride), and cultured to mid-log phase. Particularly, 4×10^5 P. aeruginosa cells were loaded into the medium, and 4 μM of synthetic peptide was added thereto. 4×10^5 B. subtilis cells were also loaded into the medium, and 1 μM of synthetic peptide was added thereto. After culturing for 2 hours at 37° C., the culture fluid was smeared on LB plate to visualize the cells. At this time, CA-MA peptide was used as a comparative group.

The test system of data set [5] is Bacillus subtilis. As to the kind of experiment: Visualization of anti-bacterial activity, colonies on LB plate. Format: cell-based. To be noted: 4×10^5 B. subtilis cells, 1 μM peptide, 2 hours at 37° C.; FIG. 1. Here is the method:
as §2

Data set [6] deals with Bacillus subtilis. As to the kind of experiment: Membrane dynamic condition, DPH fluorescence anisotropy. Type of data set: cell-based. As to conditions: 6.25 μM˜0.097 μM, 2 hours at 37° C.; FIG. 5A. Here is the method: (§3) The present inventors performed the below experiment in order to investigate the dynamic condition of lipid membrane of bacteria cells treated with synthetic peptide of the present invention. Particularly, B. subtilis (Gram-positive) and P. aeruginosa (Gram-negative) were cultured to mid-log phase in LB medium (1% bacto trypton, 0.5% bacto yeast extract, 1% sodium chloride). And the antibiotic peptide of the present invention and CA-MA peptide (as a comparative group) were treated (6.25 μM˜0.097 μM, half-fold diluted) thereto. Each strains were further cultured for 2 hours at 37° C. After fixing with 0.25% formaldehyde for 1 hour at room temperature, cultured cells were washed with PBS (pH 7.4), and then frozen in liquid nitrogen. For the fluorescent labeling, PBS (pH 7.4) was added until OD450 reached to 0.25, and DPH (1,6-diphenyl-1,3,5-hexatriene) dissolved in tetrahydrofuran was added (final conc. […]), followed by further culturing for 45 minutes at 37° C. Steady-state fluorescence anisotropy was determined by measuring the strength of fluorescence with spectrofluorometer (HITACHI F-3010, Tokyo, Japan) at 330 nm and 450 nm.
Background: Fluorescence polarisation rises when a labelled molecule tumbles more slowly, as on binding a larger partner.

The test system of data set [7] is Pseudomonas aeruginosa. The description is as above. Format: cell-based. To be noted: 6.25 μM˜0.097 μM, 2 hours at 37° C.; FIG. 5B. Here is the method: as §3
Data set [8] has as its system Calu-6 (a human lung cancer cell line). As to the kind of experiment: Anticancer activity, MTT assay. Format: cell-based. To be noted: for anti-cancer activity: Calu-6. Here is the method:
(§4) In order to measure the anticancer activity of the synthetic peptide of the present invention, the present inventors performed MTT assay with Calu-6 (a human lung cancer cell line), SNU 601 (a human stomach cancer cell line) and Jurkat (a T-cell lymphoma cell line) cells. Firstly, 90 μl of each cell line (2×10^5 cells/ml) was loaded into each well of 96-well plate. At this time, only medium contained wells were used as a control. After shaking well, the cells were cultured in CO2 incubator for 3 days. Formazan produced by mitochondria enzymes of living cells was dissolved in 100 μl of 0.04 N HCl-isopropanol, and finally, OD540 was measured by using ELISA reader. The anti-cancer activity of antibiotic peptide of the present invention was represented by a percentage (OD of synthetic peptide treated well/OD of control×100).

Data set [9] has as its system Jurkat (a T-cell lymphoma cell line). Kind of data set: Anticancer activity, MTT assay. Type of data set: cell-based. Here is the method:
as §4

For data set [10], the system named is SNU 601 (a human stomach cancer cell line). Kind of data set: Anticancer activity, MTT assay. Type of data set: cell-based. To be noted: for anti-cancer activity: SNU 601. Here is the method:
as §4

Data set [11] has as its system Candida albicans (TIMM 1768). Kind of data set: Anti-fungal activity, MIC by MTT assay. Type of data set: cell-based. To be noted: summary of the fungi of Table 2. Here is the method:
In order to measure the anti-fungal activity of the synthetic peptide of the present invention, the present inventors performed MTT assay with Candida albicans (TIMM 1768) and Tricosphoron beigelil (KCTC 7707). Particularly, PDB medium (20% potato infusion frum, 2% bacto dextrose) containing various fungi was loaded into the wells (100 μl/well) of 96-well plate. Antibiotic peptides of the present invention and CA-MA peptide (as a comparative group) were half-fold diluted consecutively, and added into the plate for further culturing. 10 μl of MTT solution ([…], 5 mg/ml) was added into each well followed by further culturing for 5-6 hours. Formazan produced by mitochondria enzymes of living cells was dissolved in 100 μl of 0.04 N HCl-isopropanol. Finally, OD570 was measured by using ELISA reader to determine the degree of MIC.
On the technique in general: Tetrazolium assays rely on reduction of a dye to a coloured formazan, in cell work by metabolically active cells.

Data set [12] relates to Bacillus subtilis (KCTC 1918). Kind of data set: MIC measurement, anti-bacterial activity. As to conditions: summary of the strains of Table 1. Format: cell-based. Here is the method: In order to measure the anti-bacterial activity of the peptide synthesized in Example 1, minimum inhibitory concentration (MIC) of the peptide was measured.
The present inventors used Bacillus subtilis (KCTC 1918) and Staphylococus epidermidis (KCTC 1917) as Gram-positive bacteria, and Pseudomonas aeruginosa (KCTC 1637) and Salmonella typhimurium (KCTC 1926) as Gram-negative bacteria for this experiment. All the bacteria used in this experiment were given by Korea Research Institute of Bioscience and Biotechnology (KRIBB). Each bacterial strain was cultured in LB medium(1% bacto-trypton, 0.5% bacto-yeast extract, 1% sodium chloride) to the mid-log phase, and diluted with 1% bacto-peptone medium at the concentration of 1×10^4 cells/100 μl. The diluted bacteria were loaded into micro-titrate plate. Antibiotic peptide synthesized in Example 1 and CA-MA peptide (as a comparative group) were half-fold diluted consecutively from 25 μM/well, and added into the plate for culture at 37° C. for 6 hours. Finally, the MIC of each strain was determined by observing OD620 with a micro-titrate plate reader.

A short description of data set [13]: Acute toxicity test in rat via non-oral administration. Type of data set: in vivo. As to conditions: SD, in vivo, 1 g/kg/15 ml, intravenous, read-out: level up to which no toxic change is caused. Here is the method: (§5) The following experiments were performed to see if the synthetic peptide of the present invention has acute toxicity in rat.
(§6) 6-week old SPF SD line rats were used in the tests for acute toxicity. Synthetic peptide of the present invention represented by the SEQ. ID. NO: 2 was suspended in 0.5% methyl cellulose solution and intravenous injected once to 2 rats per group at the dosage of 1 g/kg/15 ml. Death, clinical symptoms, and weight change in rats were observed, hematological tests and biochemical tests of blood were performed, and any abnormal signs in the gastrointestinal organs of chest and abdomen were checked with eyes during autopsy.

Data set [14] deals with SPF SD line rats. The data set is described as above. Format: in vivo. As to conditions: single intravenous injection, 1 g/kg/15 ml in 0.5% methyl cellulose. Here is the method: as §5, §6

The values that follow come from US6800727B2, “Peptides with increased + charge and hydrophobicity by substituting one or more amino acids of CA-MA peptide and pharmaceutical compositions containing thereof” (Chosun University, priority 2001, dated 2004).

Residues, ends and D or L forms follow the SMILES beside them.

With `CC[C@H](C)[C@H](NC(=O)CNC(=O)[C@@H](NC(=O)[C@H](CCCCN)NC(=O)[C@H](CCCCN)NC(=O)[C@H](Cc1ccccc1)NC(=O)[C@H](CC(C)C)NC(=O)[C@H](CCCCN)NC(=O)[C@H](Cc1c[nH]c2ccccc12)NC(=O)[C@@H](N)CCCCN)[C@@H](C)CC)C(=O)NCC(=O)N[C@@H](CCCCN)C(=O)N[C@@H](Cc1ccccc1)C(=O)N[C@@H](CC(C)C)C(=O)N[C@@H](Cc1c[nH]cn1)C(=O)N[C@@H](CO)C(=O)N[C@@H](C)C(=O)N[C@@H](CCCCN)C(=O)N[C@@H](CCCCN)C(=O)N[C@@H](Cc1ccccc1)C(=O)O` [CA-MA] (H-KWKLFKKIGIGKFLHSAKKF-OH), the “cytotoxicity (hemolysis), in words” value in [1] was “did not show any cytotoxicity”.

For the compound `CC(C)C[C@H](NC(=O)[C@H](CCCCN)NC(=O)[C@H](CCCCN)NC(=O)[C@H](CC(C)C)NC(=O)[C@H](CC(C)C)NC(=O)[C@H](CCCCN)NC(=O)[C@H](CCCCN)NC(=O)[C@H](CC(C)C)NC(=O)[C@H](CC(C)C)NC(=O)[C@@H]1CCCN1C(=O)[C@@H]1CCCN1C(=O)[C@@H]1CCCN1C(=O)[C@H](CCCCN)NC(=O)[C@H](CCCCN)NC(=O)[C@H](CC(C)C)NC(=O)[C@H](CC(C)C)NC(=O)[C@H](CCCCN)NC(=O)[C@H](CCCCN)NC(=O)[C@H](Cc1c[nH]c2ccccc12)NC(=O)[C@@H](N)CCCCN)C(=O)O` [Synthetic peptide (SEQ ID. NO: 2)] (H-KWKKLLKKPPPLLKKLLKKL-OH; N-terminus and C-terminus assumed), the “destroyed cells observed with SEM, versus control and CA-MA peptide” value in [2] and in data set [3] was “much more destroyed cells” in each case. Besides, the “cytotoxicity (hemolysis), in words” value in data set [1] is reported as “did not show any cytotoxicity”. For the same compound, the “anti-bacterial activity on agar plate, compared to CA-MA” value in [4] was “remarkable anti-bacterial activity”. For the same compound, in data set [5], the “colonies on LB plate” value is on record as “no colony was found”. In addition, the “DPH-labeled fluorescent materials intercalated at lower position of membrane, compared to CA-MA peptide” value in data set [6] and in [7] was 15-20% each time. For the same compound, the “anti-cancer activity compared with CA-MA peptide” value was “higher than that of CA-MA peptide” in data set [8] (Calu-6, 3 days, FIG. 6A); “higher than that of CA-MA peptide” in data set [9] (3 days, FIG. 6B); “higher than that of CA-MA peptide” in [10] (SNU 601, 3 days, FIG. 6C). Moreover, the anti-cancer activity result in [8] (over 10 μM concentration) is “complete restrain of cancer cell growth”; in [8] (to the concentration of 1 μM) it was “did not showed anti-cancer activity”; in data set [9] (over 10 μM concentration), “complete restrain of cancer cell growth”; in data set [9] (to the concentration of 1 μM) it was “did not showed anti-cancer activity”; in data set [10] (over 10 μM concentration), “complete restrain of cancer cell growth”; in [10] (to the concentration of 1 μM) it was “did not showed anti-cancer activity”. Besides, in data set [11], the “anti-fungal activity relative to CA-MA peptide” value was “about 2 times”. In [12], the “antibiotic activity relative to CA-MA peptide” value was “around 4 times”. Moreover, the NOAEL in [13] was at least 10 mg/kg. Besides, the “clinical symptoms, weight change, death” value in [14] was “did not cause any specific clinical symptoms, weight change, or death”. Besides, the “hematological tests, biochemical tests of blood, autopsy” value in data set [14] is “No change was observed”.

On to `CC[C@H](C)[C@H](NC(=O)CN)C(=O)NCC(=O)N[C@@H](C)C(=O)N[C@H](C(=O)N[C@@H](CC(C)C)C(=O)N[C@@H](CCCCN)C(=O)N[C@H](C(=O)N[C@@H](CC(C)C)C(=O)N[C@H](C(=O)N[C@H](C(=O)NCC(=O)N[C@@H](CC(C)C)C(=O)N1CCC[C@H]1C(=O)N[C@@H](C)C(=O)N[C@@H](CC(C)C)C(=O)N[C@H](C(=O)N[C@@H](CO)C(=O)N[C@@H](Cc1c[nH]c2ccccc12)C(=O)N[C@H](C(=O)N[C@@H](CCCCN)C(=O)N[C@@H](CCCNC(=N)N)C(=O)N[C@@H](CCCCN)C(=O)N[C@@H](CCCNC(=N)N)C(=O)N[C@@H](CCC(N)=O)C(=O)N[C@@H](CCC(N)=O)C(N)=O)[C@@H](C)CC)[C@@H](C)CC)[C@@H](C)O)[C@@H](C)O)C(C)C)C(C)C` [Melittin, melittin], for which, in data set [1], the “cytotoxicity (hemolysis), in words” value is on record as “high cytotoxicity”.
